Test results taken from ChEMBL document CHEMBL6078679, “Structure-Guided Discovery of Subtype Selective SIRT6 Inhibitors with a β-Carboline Skeleton for the Treatment of Breast Cancer” (J Med Chem, 2024).

Experiments:
[1] = target: T1, NAD-dependent protein deacetylase sirtuin-3, mitochondrial (Homo sapiens, UniProt Q9NTG7); assay: Inhibition of full length N-terminal his-tagged SIRT3 (unknown origin) deacetylation activity expressed in Escherichia coli BL21 (DE3) using RHKK-Ac-AMC as substrate incubated for 2 hrs by FDL analysis relative to control
T1 sequence (Q9NTG7 whole entry): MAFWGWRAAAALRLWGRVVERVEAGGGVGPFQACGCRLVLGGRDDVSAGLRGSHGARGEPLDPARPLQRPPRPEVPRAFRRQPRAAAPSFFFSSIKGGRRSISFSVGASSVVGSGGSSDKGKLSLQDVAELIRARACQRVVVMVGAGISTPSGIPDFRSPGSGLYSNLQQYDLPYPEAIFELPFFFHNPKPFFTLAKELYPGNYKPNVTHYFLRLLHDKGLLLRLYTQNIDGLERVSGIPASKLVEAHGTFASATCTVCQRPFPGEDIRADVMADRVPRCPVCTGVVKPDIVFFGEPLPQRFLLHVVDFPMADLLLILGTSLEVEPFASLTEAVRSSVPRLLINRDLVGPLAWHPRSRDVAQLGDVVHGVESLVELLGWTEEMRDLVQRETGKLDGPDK

[2] = target: T2, NAD-dependent protein lipoamidase sirtuin-4, mitochondrial (Homo sapiens, UniProt Q9Y6E7); assay: Inhibition of SIRT4 (unknown origin) deacetylation activity using Boc-Lys(Ac)-AMC as substrate incubated for 2 hrs by BioTek microplate reader analysis
T2 sequence (Q9Y6E7 whole entry): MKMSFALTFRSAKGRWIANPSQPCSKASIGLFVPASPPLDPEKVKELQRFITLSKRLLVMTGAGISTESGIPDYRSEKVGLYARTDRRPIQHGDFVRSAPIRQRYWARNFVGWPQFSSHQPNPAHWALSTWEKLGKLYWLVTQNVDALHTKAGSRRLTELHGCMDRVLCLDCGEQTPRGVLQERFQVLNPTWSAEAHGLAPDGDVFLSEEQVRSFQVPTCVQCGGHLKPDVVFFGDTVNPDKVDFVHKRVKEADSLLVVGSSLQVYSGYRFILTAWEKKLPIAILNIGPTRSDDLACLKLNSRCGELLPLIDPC

[3] = target: T3, NAD-dependent protein deacetylase sirtuin-7 (Homo sapiens, UniProt Q9NRC8); assay: Inhibition of SIRT7 (unknown origin) deacetylation activity using Boc-Lys(Ac)-AMC as substrate incubated for 2 hrs by BioTek microplate reader analysis
T3 sequence (Q9NRC8 whole entry): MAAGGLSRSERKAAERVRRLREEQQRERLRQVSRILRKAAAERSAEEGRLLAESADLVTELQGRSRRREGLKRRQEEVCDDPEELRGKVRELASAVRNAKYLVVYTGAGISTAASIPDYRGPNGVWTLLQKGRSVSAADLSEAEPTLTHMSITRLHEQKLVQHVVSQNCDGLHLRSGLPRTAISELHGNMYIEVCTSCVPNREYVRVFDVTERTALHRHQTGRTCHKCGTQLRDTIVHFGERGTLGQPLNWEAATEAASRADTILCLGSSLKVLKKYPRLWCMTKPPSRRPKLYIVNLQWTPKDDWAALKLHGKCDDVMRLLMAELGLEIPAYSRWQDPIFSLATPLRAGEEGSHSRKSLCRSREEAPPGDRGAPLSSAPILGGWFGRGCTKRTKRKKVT

[4] = target: NAD-dependent protein deacylase sirtuin-5, mitochondrial (Homo sapiens, UniProt Q9NXA8); assay: Inhibition of SIRT5 (unknown origin) deacetylation activity using Boc-Lys(Ac)-AMC as substrate incubated for 2 hrs by BioTek microplate reader analysis
[5] = target: T4, NAD-dependent protein deacetylase sirtuin-1 (Homo sapiens, UniProt Q96EB6); assay: Inhibition of SIRT1 (unknown origin) deacetylation activity using Boc-Lys(Ac)-AMC as substrate incubated for 2 hrs by BioTek microplate reader analysis
T4 sequence (Q96EB6 whole entry): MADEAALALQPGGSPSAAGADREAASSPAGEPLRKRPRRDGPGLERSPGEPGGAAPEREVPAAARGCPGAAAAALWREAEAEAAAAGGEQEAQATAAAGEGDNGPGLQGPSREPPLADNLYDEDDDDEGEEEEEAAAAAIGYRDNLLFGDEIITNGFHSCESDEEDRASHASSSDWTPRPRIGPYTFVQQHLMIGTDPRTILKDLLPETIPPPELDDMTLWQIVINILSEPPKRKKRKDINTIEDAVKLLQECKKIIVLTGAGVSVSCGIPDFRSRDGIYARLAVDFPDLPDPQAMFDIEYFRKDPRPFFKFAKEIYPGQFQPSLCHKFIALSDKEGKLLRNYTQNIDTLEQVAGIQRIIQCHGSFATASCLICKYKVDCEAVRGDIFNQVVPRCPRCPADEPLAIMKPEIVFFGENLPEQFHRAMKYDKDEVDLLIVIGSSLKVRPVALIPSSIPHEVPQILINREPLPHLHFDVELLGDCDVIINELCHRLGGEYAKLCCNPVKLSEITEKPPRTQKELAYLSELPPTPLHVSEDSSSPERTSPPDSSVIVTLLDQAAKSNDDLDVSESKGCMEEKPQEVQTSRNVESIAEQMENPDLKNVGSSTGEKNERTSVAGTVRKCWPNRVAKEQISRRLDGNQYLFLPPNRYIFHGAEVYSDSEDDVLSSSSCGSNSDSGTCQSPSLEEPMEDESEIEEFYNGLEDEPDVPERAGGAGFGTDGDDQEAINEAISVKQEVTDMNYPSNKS

[6] = target: T5, NAD-dependent protein deacetylase sirtuin-2 (Homo sapiens, UniProt Q8IXJ6); assay: Inhibition of SIRT2 (unknown origin) deacetylation activity using Boc-Lys(Ac)-AMC as substrate incubated for 2 hrs by BioTek microplate reader analysis
T5 sequence (Q8IXJ6 whole entry): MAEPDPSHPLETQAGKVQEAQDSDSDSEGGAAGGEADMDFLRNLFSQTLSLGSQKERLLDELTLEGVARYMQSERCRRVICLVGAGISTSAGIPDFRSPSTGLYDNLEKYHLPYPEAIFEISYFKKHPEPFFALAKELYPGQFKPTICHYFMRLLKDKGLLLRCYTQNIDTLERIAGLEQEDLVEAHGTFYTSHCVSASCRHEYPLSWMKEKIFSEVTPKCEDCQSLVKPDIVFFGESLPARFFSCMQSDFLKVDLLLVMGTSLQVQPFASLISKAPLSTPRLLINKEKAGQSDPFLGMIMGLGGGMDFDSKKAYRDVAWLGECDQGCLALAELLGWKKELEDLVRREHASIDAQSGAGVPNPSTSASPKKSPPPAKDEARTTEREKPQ

NAD-dependent protein deacylase sirtuin-5, mitochondrial, sequence (Q9NXA8 whole entry): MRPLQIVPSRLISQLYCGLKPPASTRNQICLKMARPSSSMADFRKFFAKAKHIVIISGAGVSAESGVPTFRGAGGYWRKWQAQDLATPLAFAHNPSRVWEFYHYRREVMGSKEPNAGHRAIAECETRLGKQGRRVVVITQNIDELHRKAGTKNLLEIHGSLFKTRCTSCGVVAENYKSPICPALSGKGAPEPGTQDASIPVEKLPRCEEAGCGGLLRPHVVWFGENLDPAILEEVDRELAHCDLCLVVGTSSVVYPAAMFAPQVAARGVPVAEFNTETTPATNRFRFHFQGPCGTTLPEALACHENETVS

Row | IC50 [2] [µM] | IC50 [3] [µM] | IC50 [4] [µM] | IC50 [5] [µM] | IC50 [6] [µM] | SMILES | IC50 [1] [µM]
1 | – | – | – | – | – | COC(=O)c1cc2c(cn1)[nH]c1ccccc12 [BETA-CCM] | > 100
2 | – | – | – | – | – | CC(/C=C/C(=O)NO)=C\[C@@H](C)C(=O)c1ccc(N(C)C)cc1 [TRICHOSTATIN] | 7.88
3 | 274 | > 500 | > 500 | 312 | 157 | N#Cc1ccc(Cn2c3ccc(Cl)cc3c3cc(C(=O)NCc4ccccn4)ncc32)cc1 | –
